Assay results as given in the Biogen ADME set (Fang et al. 2023).
In brackets after ≈: the same amount, converted by molar mass.

Conditions: for aqueous solubility: pH 6.8

Row | intrinsic clearance, human liver microsomes [mL/min/kg] | intrinsic clearance, rat liver microsomes [mL/min/kg] | aqueous solubility [µg/mL] | MDR1-MDCK efflux ratio | fraction unbound, human plasma | fraction unbound, rat plasma | SMILES
1 | – | – | 0.17 (≈ 0.544 µM) | – | – | – | c1ccc(-c2nn3c(-c4ccco4)nnc3c3ccccc23)cc1
2 | 81.2 | 788 | – | 0.537 | – | – | O=c1c2oc3ccccc3c2ncn1Cc1ccc(F)c(F)c1
3 | – | – | 0.26 (≈ 0.727 µM) | 0.986 | – | – | Cc1sc2ncnc(OCC(=O)Nc3ccc4c(c3)OCO4)c2c1C
4 | ≤ 4.74 | 106 | 61 (≈ 181 µM) | 0.677 | – | – | Cc1nccc(-c2ccc(-c3noc(CN4CCOCC4)n3)cc2)n1
5 | 18.7 | 483 | – | 0.697 | – | – | CN(C)c1cncc(-c2ccc(C(=O)NC(C)(C)C)cc2)n1
6 | 8.53 | 348 | 49.2 (≈ 164 µM) | 29.4 | – | – | CCc1nc2ccccc2n1CC(=O)Nc1ncc(C)s1
7 | 756 | 1890 | 6.56 (≈ 20.2 µM) | 0.662 | – | – | CCOC(=O)c1cc2ccccc2n1CC(=O)c1ccc(F)cc1
8 | 14.3 | 173 | – | 2.53 | 0.0006 | 0.00206 | Cc1c[nH]c2nccc(Oc3c(F)cc(Nc4cc(Cl)nc(N)n4)cc3F)c12
9 | 6.33 | 110 | 45.8 (≈ 143 µM) | 18.8 | – | – | CC(C)(C)c1ccc(=O)n(CC2CN(CC3(O)CCCC3)C2)n1
10 | 42.1 | 374 | 19.7 (≈ 70.4 µM) | 0.418 | – | – | COc1ccccc1-c1nn(-c2ccccc2)cc1CO
11 | 18.3 | 390 | – | 0.488 | – | – | CCOC1CCN(c2ccnc(C(=O)NCc3ccccc3)c2)CC1
12 | 2360 | 3130 | – | – | – | – | Cc1cc(C)nc(SCC(=O)N2c3ccccc3C(C)(c3ccccc3)CC2(C)C)n1 (configuration not stated)
13 | 161 | 443 | – | – | – | – | COc1cc(Nc2c(C#N)cnc3cc(OC)c(OC)cc23)c(Cl)cc1Cl

The next lines start with the compound.

Row | SMILES | intrinsic clearance, human liver microsomes [mL/min/kg] | intrinsic clearance, rat liver microsomes [mL/min/kg] | aqueous solubility [µg/mL] | MDR1-MDCK efflux ratio | fraction unbound, human plasma | fraction unbound, rat plasma
14 | CC(=O)N1CCCC(C(=O)N2CCc3c(cccc3C(C)C)C2)C1 (configuration not stated) | 46 | 506 | 55 (≈ 167 µM) | – | – | –
15 | CNC(=O)c1cccc(Oc2ncnc3c2CN(C)CC3)c1 | ≤ 4.74 | ≤ 10.7 | 46.9 (≈ 157 µM) | 19.2 | – | –
16 | Fc1ccc(NCc2cccc(OCCN3CCOCC3)c2)nc1 | 10.2 | 280 | 39.6 (≈ 120 µM) | 0.773 | – | –
17 | O=C(CSCCc1ccncc1)Nc1ccccc1 | 19.6 | 429 | – | 0.805 | – | –
18 | COc1cccc(-c2ocnc2C(=O)Nc2ccc(-c3ccc(C)o3)cc2)c1 | – | – | 0.4 (≈ 1.07 µM) | – | – | –
19 | Cc1nc2cc(-c3nccn3C)nn2c(NCc2cccnc2)c1C | 14.7 | 379 | 55.7 (≈ 167 µM) | 28.5 | – | –
20 | CNCc1cc(N(C)C)nc(C2CCCN2C(=O)CCc2c[nH]c3ccccc23)n1 (configuration not stated) | 50.6 | 390 | – | 35.1 | – | –
21 | Cc1ccncc1-c1ccc(-c2ccn[nH]2)cc1 | 10.5 | 65.8 | 20.5 (≈ 87 µM) | 0.59 | – | –
22 | Cc1ccsc1C(=O)Nc1nc2ccccc2s1 | – | – | 0.29 (≈ 1.06 µM) | 0.136 | – | –
23 | C[C@]12CCC3=C4CCC(=O)C=C4CC[C@H]3[C@@H]1CC[C@@]2(O)CC#N | 21 | 185 | – | 3.64 | – | –
24 | NC(=O)c1cnn(Cc2cccc(F)c2)c1 | ≤ 4.74 | ≤ 10.7 | – | – | – | –
25 | CCc1oc2c(-n3cnnc3)cccc2c1C | 111 | 169 | 22.6 (≈ 99.4 µM) | 0.587 | – | –
26 | CCc1nnnn1Cc1noc2c1CCCC2 | ≤ 4.74 | 60.7 | 23.2 (≈ 99.6 µM) | 0.792 | – | –
27 | CN1CCC(C(=O)N2CCC(c3cc(C(F)(F)F)c4c(n3)CCNC4=O)CC2)CC1 | ≤ 4.74 | 11 | 52.3 (≈ 123 µM) | 5.17 | – | –
28 | CCC(=O)Nc1sc2c(c1C#N)CCC2 | 156 | 381 | – | – | – | –
29 | CCc1nc(C)cc(N2CCCC3(CCNCC3)CC2)n1 | ≤ 4.74 | ≤ 10.7 | – | 32.4 | – | –
30 | CC(=O)N1CCN(C(=O)[C@H]2CCCCN2C(=O)OC(C)(C)C)CC1 | ≤ 4.74 | ≤ 10.7 | 113 (≈ 333 µM) | 9.44 | – | –
31 | Cc1cc(F)c(C(=O)Nc2cccc(-c3nncn3C(C)C)n2)cc1-n1cnc(C2CC2)c1 | – | – | 64.8 (≈ 145 µM) | – | – | –
32 | O=C(Cn1nc(Cc2ccccc2)c2ccccc2c1=O)NCc1ncc[nH]1 | 50.9 | 3330 | – | 92.6 | – | –
33 | CC(=O)NCCNc1cc(Cl)nn2c(-c3cccc(S(=O)(=O)N(C)C)c3)c(C)nc12 | 228 | 797 | 45.8 (≈ 102 µM) | 67.7 | 0.048 | –
34 | Cc1cc(C)n2ncc(C(=O)N[C@H]3CC[C@@H](C(C)C)CC3)c2n1 | – | – | – | 0.775 | – | –
35 | CN(Cc1ccc(N)nc1)c1nc(C(F)(F)F)cs1 | ≤ 4.74 | 116 | – | 0.598 | – | –
36 | CCC1=Nc2c(cnn2-c2cccc(Cl)c2)C2=NCCCN12 | – | – | 53.2 (≈ 170 µM) | – | – | –
37 | O=C(c1cc(-c2cccc(Cl)c2)on1)N1CCC(n2cccc2)CC1 | 15.4 | 274 | 10.5 (≈ 29.4 µM) | 0.698 | – | –
38 | COc1ccc(-c2nnc(NC(=O)c3ccc4ccccc4c3)o2)cc1OC | – | – | 0.27 (≈ 0.719 µM) | – | – | –
39 | Cc1nc(CNC2CCN(C(=O)C3CC3)CC2)cs1 | ≤ 4.74 | ≤ 10.7 | 42.6 (≈ 152 µM) | 3.43 | – | –
40 | Cc1nc(C)c2c(C)c(C(=O)N(C)CCN3CCCC3)sc2n1 | ≤ 4.74 | 77.8 | 60.9 (≈ 183 µM) | 12.6 | – | –
41 | N#Cc1nc(-c2ccccc2)oc1NCc1ccccc1 | 197 | 2470 | – | – | – | –
42 | CN(CCSc1ccc2nnnn2n1)Cc1ccccc1 | 64.7 | ≤ 10.7 | – | 0.431 | – | –
43 | Cc1[nH]nc2c1C1(CCCCC1)CC(=O)N2 | 8.44 | 45.6 | – | 3.36 | 0.21 | 0.193
